Experimental data reported in patent US8338488B2, “Use of at least one oxime derivative of 3,5-seco-4-nor-cholestane as antioxidants” (Trophos, priority 2007, dated 2012).

What was measured:
[1] = Competition with DMPO for the tBuO radical, DMPO-tBuO adduct signal measured by EPR
Description: The nitrones trap the radical species (R.; RO.) and allow their observation by electron paramagnetic resonance (EPR) (Degray J. et al. Electron Spin Resonance, Ed N. M. Atherton, Atheaeum Press Ltd; Cambridge, 1994, 14, 246).
The incubation of the DMPO (Interchim-U2469) (20 mM) in deoxygenated toluene (Sigma-Aldrich) in the presence of the tBuO (tert-butoxyl) radical, generated by photolysis, makes it possible to identify and quantify by EPR the signal of the DMPO-tBuO radical. This signal is inhibited in the presence of an equimolar quantity of 3,5-seco-4-nor-cholestane oxime.
The EPR signal allows integration in the form of an area of the signal of the DMPO-tBuO adduct and therefore a relative quantification of this radical entity.
All the experiments were carried out on an X-band Bruker ESP300 device (9.5 GHz) at ambient temperature. The solutions were studied in a quartz EPR tube.

[2] = Oxidation of cumene to cumene hydroperoxide by oxygen with AIBN, assayed by HPLC-UV; conditions: for % of reduction of the oxidation of the cumene / Area of the signal, in relative units, of the cumene hydroperoxide: 2 equivalents of AIBN, 2 hours 45° C.
Description: The oxidation of cumene at atmospheric pressure and at 37° C. by oxygen is known and described in the presence of a radical initiator such as AIBN (azobisisobutyronitrile) (Blanchard H. S., J. Am. Chem. Soc. 1959, 81, 4548). A recent publication used this reaction to classify the antioxidant potential of known products such as vitamin E (which is the universal reference), BHT (butylated hydroxytoluene) and other products.
In the following experiment we reproduced the same experimental conditions as those described in the publication of Becker D. A. et al. (J. Am. Chem. Soc. 2002, 124, 4678-4684). A high pressure liquid chromatography method coupled with a UV detector was used to detect cumene hydroperoxide. The column used is an Agilent Zorbax Eclipse XDB RPC8 column (150×4.6 mm) coupled with a UV detector fixed at 254 nm. The gradient used is detailed in the following table: […]
2 ml of cumene (AcrosOrganic) and 0.5 ml of methanol are mixed, azobisisobutyronitrile (AcrosOrganic) is added (2 equivalents) and the solution taken to 45° C. in order to accelerate the chemical reaction. The cumene hydroperoxide appears over time and is assayed by the HPLC method.
The technique used made it possible to compare the appearance of the cumene hydroperoxide in the presence of an antioxidant agent such as the claimed products and vitamin E used as reference product.

[3] = Pharmacokinetics in the rat, oral and intravenous routes; format: in vivo; conditions: 500 mg/kg by oral route, suspension in corn oil, i.v. reference in cremophor/ethanol/water
Description: A study of pharmacokinetics with administration by oral route in suspension in corn oil and by intra-venous route in solution in cremophor/ethanol/water (5%, 10%, 85%) made it possible to calculate the bioavailability of the product. The assay of the product in the plasma is carried out by a high pressure liquid chromatography method coupled with mass spectrometry.

[4] = Chemical stability of the powder under ICH storage conditions, total impurities by GC-FID; format: physicochemical; conditions: for total impurities: powder
Description: These analyses were carried out using a gas chromatography method coupled with an FID detector. This method makes it possible to quantify the impurities at a level of 0.2%.

[5] = system: perfused isolated rat heart; experiment: Perfused isolated rat heart, ischaemia/reperfusion, DMPO spin trapping in the coronary effluents (EPR)
Description: The animals used are male rats of the Sprague Dawley strain (Harlan et CERJ, France) of 250-300 g) fed ad libitum. The rats are anaesthetized by an intraperitoneal injection of sodium pentobarbital (50 mg/kg of body weight). The thoracic cavity is then opened and the heart rapidly removed and immersed in perfusion liquid (Krebs-Henseleit) at 4° C. in order to stop any contraction.
The heart with fatty tissues removed is then perfused according to Langendorff's technique by aortic retrograde route at a constant pressure of 90 cm H2O. A small incision in the pulmonary artery allows the flow and measurement of the coronary effluent over time (coronary flow rate). The time required for completion of the entire operation is two to three minutes. After ablation of the left auricle, a latex cuff is inserted into the left ventricle and filled with a volume of distilled water (50-60 μl) which remains constant during the experimental protocol, connected to a pressure sensor (GOULD) and to a differentiating recorder allowing the measurement of the following haemodynamic parameters: • intraventricular diastolic pressure (Pdia) • developed pressure of left ventricle Pdev=Psystolic−Pdia • dP/dt (first derivative of the developed pressure, cardiac contractility index in this model) • cardiac frequency (F) • cardiac work calculated according to the relationship W=Pdev×F […]

In the case of `CC(C)CCC[C@@H](C)[C@H]1CC[C@H]2[C@@H]3CC/C(=N\O)[C@](C)(CCCO)[C@H]3CC[C@]12C` [3,5-seco-4-nor-cholestan-5-one oxime-3-ol], the “% inhibition of the DMPO-tBuO radical” value ([1]; compound 20 mM + DMPO 20 mM, 200 s) is reported as 50%, the “% inhibition of the DMPO-tBuO radical” value ([1]; compound 20 mM + DMPO 20 mM, 400 s) is reported as 66% and the “Area of the DMPO-tBuO signal at 200 s in relative units” value ([1]; compound 20 mM + DMPO 20 mM, (t-BuO)2 20 mM, photolysis at 350 nm, 200 s) is reported as 3 relative units. For the same molecule, the “Area of the DMPO-tBuO signal at 400 s in relative units” value ([1]; compound 20 mM + DMPO 20 mM, (t-BuO)2 20 mM, photolysis at 350 nm, 400 s) was 4 relative units, the “effect on the DMPO-tBuO EPR signal” value ([1]; equimolar quantity to DMPO (20 mM), deoxygenated toluene) was “inhibited” and the “inhibition of the level of the DMPO-tBuO signal radical (conclusion)” value ([1]; equimolar with DMPO) was ~60%. The “kinetics of inhibition of the DMPO-tBuO signal (time)” value ([1]; rapid kinetics) was “less than 10 minutes”, the “reduction of the oxidation of the cumene by oxygen (conclusion)” value [2] was “approximately 40%” and the “% of reduction of the oxidation of the cumene” value (from here on “% of reduction … of the cumene”) ([2]; 50 μM) was 25%. For the same molecule, the “Area of the signal, in relative units, of the cumene hydroperoxide” value (“Area of the signal, in relative units” for short) ([2]; 50 μM) was 300 relative units, the “% of reduction … of the cumene” value ([2]; 200 μM) was 50% and the “Area of the signal, in relative units” value ([2]; 200 μM) was 200 relative units. The “activity compared with vitamin E” value ([2]; same concentrations) was “same order of magnitude”, the bioavailability [3] was 6% and the “change in the quality of the product” value ([4]; after 1 year's storage at 25° C.) was “No change in the quality”. For the same molecule, the “change in the quality of the product” value ([4]; after 6 months of storage at 40° C.) was “No change in the quality”, the total impurities ([4]; 25° C. under 60% relative humidity, T0) was 0.2% and the total impurities ([4]; 25° C. under 60% relative humidity, T12 months) was 0.2%. The total impurities ([4]; 40° C. under 75% relative humidity, T0) was 0.2%, the total impurities ([4]; 40° C. under 75% relative humidity, T6 months) was 0.2% and the “extracellular production of free radical scavenging adducts (DMPO-OH) in the coronary effluents” value ([5]; 1 μM in Krebs buffer, DMPO 50 mM, reperfusion after ischaemia, p<0.05) was “large and significant reduction”. The “protection with respect to the vehicle (DMPO-OH adducts, FIG. 1)” value ([5]; 1 μM, two groups of 6 hearts) was “significant protection”.
With vitamin E [reference compound] the “% of reduction … of the cumene” value ([2]; 100 μM) was 39% and the “Area of the signal, in relative units” value ([2]; 100 μM) was 245 relative units.
